Literature values as cited in article PMC6940698.

Assay: not told

For O=C(O)c1cc(S(=O)(=O)O)ccc1O, the “log partition benzene / water” value is listed as 0.34 ratio, the “log partition toluene / water” value is listed as 0.26 ratio and the “log partition xylene / water” value is listed as 0.23 ratio.
